Assay results as given in patent US20150225369A1, “DDR2 INHIBITORS FOR THE TREATMENT OF OSTEOARTHRITIS” (Merck Patent GmbH, priority 2012, published 2015).
Where two headings read alike, the source gives them in different places.

What was measured:
[1] = molecular target: T1, HEK293 transfected with human DDR2 (Homo sapiens, UniProt Q16832); experiment: Phospho-DDR2 cellular assay (collagen II induced DDR2 phosphorylation, ELISA); format: cell-based; settings: read-out: IC50 [p-DDR2]
T1 construct: expressed in transfected cells; host or cells: HEK293 (PLT460F_(DDR2)-P7-1)
T1 sequence (Q16832 22-855): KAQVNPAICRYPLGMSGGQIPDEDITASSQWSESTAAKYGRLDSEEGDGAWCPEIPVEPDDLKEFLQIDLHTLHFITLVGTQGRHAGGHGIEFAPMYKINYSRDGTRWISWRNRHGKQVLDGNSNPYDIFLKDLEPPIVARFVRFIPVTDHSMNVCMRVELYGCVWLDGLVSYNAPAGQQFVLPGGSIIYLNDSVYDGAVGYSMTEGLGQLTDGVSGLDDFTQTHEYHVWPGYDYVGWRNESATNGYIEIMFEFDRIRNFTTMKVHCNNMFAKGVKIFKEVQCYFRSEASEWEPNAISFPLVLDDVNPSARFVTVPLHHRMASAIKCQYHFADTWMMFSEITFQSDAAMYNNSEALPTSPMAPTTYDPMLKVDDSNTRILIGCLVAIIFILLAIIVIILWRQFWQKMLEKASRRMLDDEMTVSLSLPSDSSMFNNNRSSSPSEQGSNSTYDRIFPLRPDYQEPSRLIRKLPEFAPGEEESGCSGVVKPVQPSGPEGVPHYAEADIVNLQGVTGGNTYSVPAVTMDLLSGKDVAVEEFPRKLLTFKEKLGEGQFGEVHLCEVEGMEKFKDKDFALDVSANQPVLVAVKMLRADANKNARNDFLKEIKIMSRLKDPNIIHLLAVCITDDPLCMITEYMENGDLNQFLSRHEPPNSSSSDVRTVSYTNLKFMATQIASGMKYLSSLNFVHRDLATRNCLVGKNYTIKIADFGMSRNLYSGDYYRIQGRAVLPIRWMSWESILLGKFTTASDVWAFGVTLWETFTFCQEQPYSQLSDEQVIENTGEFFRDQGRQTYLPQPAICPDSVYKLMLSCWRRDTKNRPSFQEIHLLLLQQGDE
Procedure: Assays were performed in a 384 well plate format, using cell line HEK293 transfected with human DDR2 (PLT460F_(DDR2)-P7-1)
Cells were seeded at a density of 10'000 cells/well in 384well poly-D-lysine coated Black/clear plate (Cellcoat Greiner) and incubated in DMEM medium in the presence of 10% fetal bovine serum at 37° C., 5% CO2 for 48 h. Medium was replaced by serum-free medium and cells were incubated at 37° C., 5% CO2 for 8 h. Compound to be tested in 5% DMSO or 5% DMSO and 50 μg/ml of chicken collagen II were added and cells were incubated at 37° C., 5% CO2 for 16 h
Cells were rinsed with ice-cold PBS, lysed with lysis buffer (M-PER Thermo #78501) for 30 min at room temperature and centrifuged for 1 min at 1000 RPM. In parallel, White High binding 384 well plates (Corning) were coated with mouse anti-human DDR2 capture antibody (R&D Systems kit DuoSet IC Human phospho-DDR2 ELISA), overnight at RT.
An aliquot of cell lysate was transferred to the coated plates and incubated for 2 h at RT. Plates were washed and mouse anti-phospho-tyrosine detection antibody (R&D Systems kit DuoSet IC Human phospho-DDR2 ELISA) conjugated to horse radish peroxidase (HRP) was added for 2 h at RT. Plates were washed and chemiluminescent substrate for HRP (Thermo) was added for 15 min at RT. Luminescence was measured on a luminometer.

[2] = molecular target: T2, His-tagged human recombinant DDR-2 kinase domain (His-TEV-DDR2 467-855 aa) (Homo sapiens, UniProt Q16832); experiment: Autophosphorylation assay for biochemical activity testing of DDR2 (HTRF)
T2 construct: His-TEV-DDR2 467-855 aa
T2 sequence (Q16832 467-855): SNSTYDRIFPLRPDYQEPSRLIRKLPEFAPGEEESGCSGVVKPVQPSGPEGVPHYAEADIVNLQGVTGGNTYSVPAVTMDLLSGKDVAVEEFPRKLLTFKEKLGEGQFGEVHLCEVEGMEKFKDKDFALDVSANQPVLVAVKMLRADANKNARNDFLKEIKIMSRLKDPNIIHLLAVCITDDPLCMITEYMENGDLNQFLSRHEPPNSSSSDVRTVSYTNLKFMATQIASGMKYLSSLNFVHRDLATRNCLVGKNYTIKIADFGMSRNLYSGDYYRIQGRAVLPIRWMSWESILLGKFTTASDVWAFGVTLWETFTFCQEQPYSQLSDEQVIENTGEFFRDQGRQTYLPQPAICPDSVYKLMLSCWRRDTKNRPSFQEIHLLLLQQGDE
How it was run: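 Phospho-tyrosine was detected by HTRF between XL665 anti-6His and cryptate anti-phosphotyrosine PT66 antibodies, using the emission ratio. Inhibition was referenced to the inhibitor-free reaction.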

[3] = biochemical DDR2 autophosphorylation
[4] = 4 nM DDR2 kinase domain, 150 μM ATP, 150 min at 22° C.

**Q.** `CNC(=O)c1cc(Oc2ccc(CNC(=O)Nc3cc(C(F)(F)F)ccc3CCN)cc2)ccn1` [compound 175, 4-(4-{3-[2-(2-Amino-ethyl)-5-trifluoromethyl-phenyl]-ureidomethyl}-phenoxy)-pyridine-2-carboxylic acid methylamide] was tested. Which IC50 ([1]; cellular phospho-DDR2) did it give?
**A.** 1300 nM

**Q.** How did the IC50 ([1]; cellular phospho-DDR2) turn out when `CNC(=O)c1cc(Oc2ccc(CNC(=O)Nc3cc(C)c(Cl)cc3N(C)CCN(C)C)cc2C)ccn1` [compound 164, 4-[4-(3-{4-Chloro-2-[(2-dimethylamino-ethyl)-methyl-amino]-5-methyl-phenyl}-ureidomethyl)-2-methyl-phenoxy]-pyridine-2-carboxylic acid methylamide] was run?
**A.** 300 nM

**Q.** Which IC50 ([1]; cellular phospho-DDR2) does the source give for `CNC(=O)c1cc(Oc2ccc(CNC(=O)Nc3ccccc3CO)cc2C)ccn1` [compound 198, 4-{4-[3-(2-Hydroxymethyl-phenyl)-ureidomethyl]-2-methyl-phenoxy}-pyridine-2-carboxylic acid methylamide] here?
**A.** 7500 nM

**Q.** With `CNC(=O)c1cc(Oc2ccc(CNC(=O)Nc3cc(C(F)(F)F)ccc3-n3ccnc3)cc2)ccn1` [compound 243, 4-{4-[3-(2-Imidazol-1-yl-5-trifluoromethyl-phenyl)-ureidomethyl]-phenoxy}-pyridine-2-carboxylic acid methylamide] as the compound, how does the IC50 ([1]; cellular phospho-DDR2) read?
**A.** 9400 nM

**Q.** For `CNC(=O)c1cc(Oc2ccc(CNC(=O)Nc3cccc(S(N)(=O)=O)c3)cc2)ccn1` [compound 157, 4-{4-[3-(3-Sulfamoyl-phenyl)-ureidomethyl]-phenoxy}-pyridine-2-carboxylic acid methylamide], which IC50 ([1]; cellular phospho-DDR2) is on record?
**A.** 500 nM

**Q.** With `CNC(=O)c1cc(Oc2ccc(CNC(=O)Nc3ccc(F)cc3)cc2)ccn1` [compound 12] as the compound, how does the IC50 ([1]; cellular phospho-DDR2) read?
**A.** 775 nM

**Q.** `CNC(=O)c1cc(Oc2ccc(CNC(=O)Nc3cc(C(F)(F)F)ccc3-n3cncn3)cc2)ccn1` [compound 201, 4-{4-[3-(2-[1,2,4]Triazol-1-yl-5-trifluoromethyl-phenyl)-ureidomethyl]-phenoxy}-pyridine-2-carboxylic acid methylamide] was tested. Which IC50 ([1]; cellular phospho-DDR2) did it give?
**A.** 41 nM

**Q.** For `Cn1cc(C(F)(F)F)cc(NC(=O)NCc2ccc(Oc3ccnc4c3CNC(=O)N4)cc2)c1=O` [compound 5], which IC50 ([1]; HEK293 transfected with human DDR2, 50 μg/ml chicken collagen II, 16 h) is on record?
**A.** 5.9 nM

**Q.** How did the IC50 ([1]; cellular phospho-DDR2) turn out when `CNC(=O)c1cc(Oc2ccc(C(C)NC(=O)Nc3ccc(C)c(Cl)c3)cc2)ccn1` (centres unmarked) [compound 73, 4-(4-{1-[3-(3-Chloro-4-methyl-phenyl)-ureido]-ethyl}-phenoxy)-pyridine-2-carboxylic acid methylamide] was run?
**A.** 1750 nM

**Q.** Which IC50 ([1]; cellular phospho-DDR2) does the source give for `CNC(=O)c1cc(Oc2ccc(CNC(=O)Nc3cc(C(F)(F)F)ccc3CNC(C)=O)cc2C)ccn1` [compound 214, 4-(4-{3-[2-(Acetylamino-methyl)-5-trifluoromethyl-phenyl]-ureidomethyl}-2-methyl-phenoxy)-pyridine-2-carboxylic acid methylamide] here?
**A.** 45 nM

**Q.** `CNC(=O)c1cc(Oc2ccc(CNC(=O)Nc3cc(C(F)(F)F)ccc3-n3ccnn3)cc2C)ccn1` [compound 203, 4-{2-Methyl-4-[3-(2-[1,2,3]triazol-1-yl-5-trifluoromethyl-phenyl)-ureidomethyl]-phenoxy}-pyridine-2-carboxylic acid methylamide] was tested. Which IC50 ([1]; cellular phospho-DDR2) did it give?
**A.** 19 nM

**Q.** For `CNC(=O)c1cc(Oc2ccc(CNC(=O)Nc3cccc(S(=O)(=O)NC(C)C)c3)cc2)ccn1` [compound 158, 4-{4-[3-(3-Isopropylsulfamoyl-phenyl)-ureidomethyl]-phenoxy}-pyridine-2-carboxylic acid methylamide], which IC50 ([1]; cellular phospho-DDR2) is on record?
**A.** 100000 nM

**Q.** How did the IC50 ([1]; cellular phospho-DDR2) turn out when `CNC(=O)c1cc(Oc2ccc(CNC(=O)Nc3ccc(Cl)c(C)c3)cc2)ccn1` [compound 74, 4-{4-[3-(4-Chloro-3-methyl-phenyl)-ureidomethyl]-phenoxy}-pyridine-2-carboxylic acid methylamide] was run?
**A.** 175 nM

**Q.** How did the IC50 ([1]; cellular phospho-DDR2) turn out when `CNC(=O)c1cc(Oc2ccc(CNC(=O)N3C(=O)Cc4ccc(C(F)(F)F)cc43)cc2)ccn1` [compound 205, 2-Oxo-6-trifluoromethyl-2,3-dihydro-indole-1-carboxylic acid 4-(2-methylcarbamoyl-pyridin-4-yloxy)-benzylamide] was run?
**A.** 1100 nM

**Q.** How did the IC50 ([1]; cellular phospho-DDR2) turn out when `CNC(=O)c1cc(Oc2ccc(CNC(=O)Nc3cc(C(F)(F)F)ccc3-n3ccnn3)cc2)ccn1` [compound 206, 4-{4-[3-(2-[1,2,3]Triazol-1-yl-5-trifluoromethyl-phenyl)-ureidomethyl]-phenoxy}-pyridine-2-carboxylic acid methylamide] was run?
**A.** 31 nM

**Q.** With `CNC(=O)c1cc(Oc2ccc(CNC(=O)Nc3cc(Cl)ccc3C)cc2)ccn1` [compound 42, 4-{4-[3-(5-Chloro-2-methyl-phenyl)-ureidomethyl]-phenoxy}-pyridine-2-carboxylic acid methylamide] as the compound, how does the IC50 ([1]; cellular phospho-DDR2) read?
**A.** 230 nM

**Q.** How did the IC50 [2, 3] turn out when `CCN(CC)CCOc1cc(Cl)c(C)cc1NC(=O)NCc1ccc(Oc2ccnc(C(=O)NC)c2)c(C)c1` [compound 136, 4-(4-{3-[4-Chloro-2-(2-diethylamino-ethoxy)-5-methyl-phenyl]-ureidomethyl}-2-methyl-phenoxy)-pyridine-2-carboxylic acid methylamide] was run?
**A.** 390 nM

**Q.** With `CCc1ccccc1NC(=O)NCc1ccc(Oc2ccncc2)cc1` [compound 28] as the compound, how does the IC50 [2, 3] read?
**A.** ≥ 100000 nM

**Q.** With `CNC(=O)c1cc(Oc2ccc(CNC(=O)Nc3ccc(C)cn3)cc2)ccn1` [compound 12] as the compound, how does the IC50 [2, 4] read?
**A.** 2000 nM

**Q.** With `CNC(=O)c1cc(Oc2ccc(CNC(=O)Nc3cc(C(F)(F)F)c(Cl)cc3OCCN(C)C)cc2)ccn1` [compound 95, 4-(4-{3-[4-Chloro-2-(2-dimethylamino-ethoxy)-5-trifluoromethyl-phenyl]-ureidomethyl}-phenoxy)-pyridine-2-carboxylic acid methylamide] as the compound, how does the IC50 [2, 3] read?
**A.** 81 nM

**Q.** How did the IC50 [2, 3] turn out when `CNC(=O)c1cc(Oc2ccc(CNC(=O)Nc3cc(Cl)c(C)cc3OCCN3CCCC3)cc2)ccn1` [compound 173, 4-(4-{3-[5-Chloro-4-methyl-2-(2-pyrrolidin-1-yl-ethoxy)-phenyl]-ureidomethyl}-phenoxy)-pyridine-2-carboxylic acid methylamide] was run?
**A.** 260 nM

**Q.** How did the IC50 [2, 3] turn out when `CNC(=O)c1cc(Oc2ccc(CNC(=O)Nc3cc(C)ccc3OC3CCNCC3)cc2C)ccn1` [compound 171, 4-(2-Methyl-4-{3-[5-methyl-2-(piperidin-4-yloxy)-phenyl]-ureidomethyl}-phenoxy)-pyridine-2-carboxylic acid methylamide] was run?
**A.** 47 nM

**Q.** For `CNC(=O)c1cc(Oc2ccc(CNC(=O)Nc3cc(C(F)(F)F)ccc3OC)cc2F)ccn1` [compound 217, 4-{2-Fluoro-4-[3-(2-methoxy-5-trifluoromethyl-phenyl)-ureidomethyl]-phenoxy}-pyridine-2-carboxylic acid methylamide], which IC50 [2, 3] is on record?
**A.** 21 nM

**Q.** For `O=C(NCc1ccc(Oc2ccncc2)cc1)Nc1ccc(Cl)cc1` [compound 16], which IC50 [2, 3] is on record?
**A.** 5900 nM

**Q.** `CNC(=O)c1cc(Oc2ccc(CNC(=O)Nc3cccnc3)cc2)ccn1` [compound 5] was tested. Which IC50 [2, 4] did it give?
**A.** 15000 nM

**Q.** With `CNC(=O)c1cc(Oc2ccc(CNC(=O)Nc3cc(C(F)(F)F)c(Cl)cc3OCC(=O)OC)cc2)ccn1` [compound 113, (5-Chloro-2-{3-[4-(2-methylcarbamoyl-pyridin-4-yloxy)-benzyl]-ureido}-4-trifluoromethyl-phenoxy)-acetic acid methyl ester] as the compound, how does the IC50 [2, 3] read?
**A.** 57 nM
